Results from US20160279204A1, “PEPTIDES AND PHARMACEUTICAL COMPOSITIONS FOR USE IN THE TREATMENT BY NASAL ADMINISTRATION OF PATIENTS SUFFERING FROM ANXIETY AND SLEEP DISORDERS” (MAX-PLANCK-GESELLSCHAFT ZUR FÖRDERUNG DER WISSENSCHAFT E.V., priority 2011, published 2016).
“Also recorded” adds a separate entry of the source.

Experiments:
[1] = system: Bl6 and HAB mice; assay: Dark-light test after intranasal NPS; type: in vivo, mouse; conditions: for time spent in the light chamber / total distance traveled: intranasal, 4 hrs
Experimental: (§1) Behavioural tests (open field, dark-light test and elevated plus maze (EPM)) following intranasal NPS application were performed sequentially. Each test lasted for 5 min with an inter-test interval of 5 min, as described previously (Bunck et al., 2009; Krömer et al., 2005). The animals' behaviour during testing was videotaped and relevant parameters were analysed with the tracking software ANY-maze version 4.30 (Stoelting, Wood Dale, Ill., USA). Native NPS (1 μg/μL) or vehicle (Ringer solution) were administered intranasally to the alert mouse as described above (total volume: 14 μL). Mice were tested 30 min and 4 hrs after intranasal administration of first drop. Animals were sacrificed 24 hrs after treatment and prefrontal cortex and bilateral hippocampi were prepared immediately and shock-frozen in methylbutane.
(§2) After having ascertained that nasally administered NPS reaches its target cells, anxiolytic effects of NPS were established for this transnasal delivery method. For this purpose, nasally 6.36 nmol NPS per mouse was administered to two mouse strains, Bl6 and HAB (high anxiety behaviour) mice. HAB animals, a mouse strain inbred for pathologically high anxiety, were chosen together with Bl6 mice to allow differentiation between the temporary condition of state anxiety and the general condition of trait anxiety (Bunck et al., 2009; Kromer et al., 2005). To accurately characterise the anxiety-relieving properties of NPS in these two mouse strains, three standardised behavioural assays measuring anxiolytic effects at two different time points after intranasal NPS administration were performed. In each test, the effects of intranasal NPS versus vehicle treatment on both anxiety- and locomotion-related indices were examined.

[2] = system: Bl6 and HAB mice; assay: Elevated plus maze (EPM) after intranasal NPS; type: in vivo, mouse
Experimental: as §1, §2

[3] = system: CA3-CA1 synapses of the VH; assay: Field potential recordings in VH slices after intranasal NPS; design: species or system mouse; conditions: for paired-pulse facilitation: interstimulus intervals 25, 50, 100, 200 ms
Experimental: Mice were then allowed to rest for 2 h before slice preparation and electrophysiological recording.
(§3) Brains were dissected and placed in ice-cold carbogenated ACSF. 350 μm horizontal slices containing the VH were prepared using a vibroslicer. Afterwards, the slices were incubated for 30 min at 34° C. and subsequently stored at room temperature. For experiments, slices were placed in a submerged recording chamber and continuously superfused with carbogenated ACSF at a flow rate of 3 mL/min. Square pulse electrical stimuli (50 μs pulse width) were delivered via a bipolar tungsten electrode (insulated to the tip, 50 μm pole diameter) that was positioned within the stratum radiatum of the CA1 region. All recordings were performed at room temperature, low-pass filtered at 1 kHz, and digitised at 5 kHz. Evoked field excitatory postsynaptic potentials (fEPSPs) were recorded using glass micro-electrodes (1 MΩ open-tip resistance), filled with ACSF and also positioned within the CA1 stratum radiatum. Stimulus intensities were adjusted in a manner to produce a fEPSP of ˜50% of that amplitude at which a population spike becomes clearly observable. Paired-pulse facilitation was measured at interstimulus intervals of 25, 50, 100, 200, and 400 ms and the paired-pulse ratio was calculated as fEPSP2 amplitude/fEPSP1 amplitude.

[4] = system: CA3-CA1 synapses of the VH; assay: Field potential recordings, bath application of NPS to VH slices; design: species or system mouse; conditions: bath application of NPS 1 μM, VH slices from C57BL/6N mice
Experimental: as §3

[5] = system: Cy3-NPS uptake in mouse brain; assay: Cy3-NPS uptake after ICV pre-injection of native NPS; type: in vivo; conditions: native NPS at 5 fold concentration, 10 min prior to ICV Cy3-NPS (0.2 nmol per mouse)
Experimental: The mice were sacrificed 30 min post-injection.
To clarify the mechanism of intracellular Cy3-NPS uptake, native, i.e. unlabeled, NPS at 5 fold concentration was injected unilaterally 10 min prior to ICV injection of Cy3-NPS (0.2 nmol per mouse). […] This points towards a receptor-mediated uptake mechanism, since, as shown for other neuropeptides (cf. Grady et al., 1996; Hubbard et al., 2009) pre-treatment with unlabeled agonists leads to receptor saturation, thereby antagonising the uptake of labelled agonist (here Cy3-NPS).

[6] = system: C57BL/6N mice; assay: Elevated plus maze after bilateral NPS injection into CA1 of the VH; type: in vivo, mouse; conditions: 0.1 nmol NPS each side into CA1 of VH, 30 min
Experimental: (§4) Animals were fixed in a stereotactic frame and maintained under isoflurane anesthesia (Forene® 100%, V/V; induction: 2.5%; maintenance: 1.5%; in O2; flow rate: 1 L/min). The mice received acute analgesic treatment with Metacam s.c. during surgery (0.5 mg/kg; in NaCl). 23 gauge stainless-steel guide cannulas were implanted in the CA1 region of the VH at the following coordinates: 3.1 mm posterior, ±3 mm lateral from bregma, and 2 mm ventral from the skull surface (Franklin and Paxinos, 2007). The guide cannulas were fixed with two screws and a two-component adhesive. For behavioural experiments, animals were implanted bilaterally for later bilateral injection, whereas for Cy3-NPS injections, implantation was performed unilaterally. The animals were allowed to recover for at least 6 days before starting the behavioural experiments. Substance infusions were carried out manually, on mice anesthetised by brief inhalation of isoflurane, using a 30 gauge injection cannula connected to a Tygon tube and a 10 μL Hamilton syringe. After infusion, the injection cannula was kept in place for additional 30 s to prevent substance outflow.
Mice were injected bilaterally either with 0.1 nmol NPS in 0.5 μL ACSF for each side or with 0.5 μL of ACSF for each side. 30 min after injection, three behavioural assays [open field, dark-light test, and elevated plus maze (EPM)] were performed sequentially in the order mentioned. Each test lasted 5 min, with a 5 min break in between, as described in Kromer et al., 2005 and Bunck et al., 2009. Animal behaviour was videotaped and relevant parameters were analysed using the tracking software ANY-maze version 4.30 (Stoelting, Wood Dale, Ill., USA). Mice were sacrificed 24 h after completion of behavioural assays and the locations of the guide cannulas were checked in histological cryosections of 40 μm counterstained with DAPI. Mice with deviating injection sites were excluded from further analysis.

[7] = system: C57BL/6N mice; assay: Dark-light test after bilateral NPS injection into CA1 of the VH; type: in vivo, mouse; conditions: 0.1 nmol NPS each side into CA1 of VH, 30 min
Experimental: as §4, with “After infusion, the injection cannula was kept in place for additional 30 s to prevent substance outflow.” left out
Mice were injected bilaterally either with 0.1 nmol NPS in 0.5 μL ACSF for each side or with 0.5 μL of ACSF for each side. […] Animal behaviour was videotaped and relevant parameters were analysed using the tracking software ANY-maze version 4.30 (Stoelting, Wood Dale, Ill., USA). […]

[8] = Bl6 and HAB mice, intranasal 6.36 nmol per mouse, 30 min

neuropeptide S (SFRNGVGSGVKKTSFRRAKQ; Neuropeptide S; UniProt P0C0P7 70-89, looked up) [NPS, peptide agonist of neuropeptide S receptor (NPSR); native NPS, rat, from Bachem]
behavioural differences versus vehicle in dark-light test [1, 8]: no behavioural differences
time spent in the light chamber ([1]; Bl6 mice): did not differ significantly
total distance traveled ([1]; Bl6 mice): did not differ significantly
time spent in the light chamber ([1]; HAB mice): significantly increased
total distance traveled ([1]; HAB mice): unaffected
behavioural differences versus vehicle in EPM [2, 8]: no behavioural differences
time on the open arms ([2]; Bl6 mice, intranasal, 4 hrs): significantly increased
total number of entries ([2]; Bl6 mice, intranasal, 4 hrs): no difference
any parameter tested in the EPM ([2]; HAB mice, intranasal, 4 hrs): no differences
magnitude of LTP induced by high-frequency stimulation ([3]; C57BL/6N mice): weakened; also recorded: decreased the magnitude of LTP
input-output curve (fEPSP amplitudes) ([3]; C57BL/6N mice, approximately 3 h after treatment): shift of input-output curves towards bigger fEPSP amplitudes; also recorded: shift of the input-output curve towards bigger fEPSP amplitudes
paired-pulse facilitation ([3]; C57BL/6N mice): weakened; also recorded: reduced paired-pulse facilitation
input-output curve (fEPSP amplitudes) ([3]; HAB mice): increase; also recorded: shift of the input-output curve towards bigger fEPSP amplitudes
magnitude of LTP ([3]; HAB mice): reduction; also recorded: decreased the magnitude of LTP
paired-pulse facilitation ([3]; HAB mice): reduction; also recorded: reduced paired-pulse facilitation
long-term potentiation (LTP) [4]: decreases
paired-pulse facilitation [4]: decreases
effect of pre-injection on Cy3-NPS uptake [5]: reduced Cy3-NPS uptake throughout the brain
anxiety-related behaviour on the EPM [6]: significant anxiolytic effect; also recorded: decreased anxiety-related behaviour
increase in the percentage of time spent on the open arms compared to vehicle-treated mice [6]: 28%
locomotion on the EPM [6]: did not affect locomotion; also recorded: without affecting locomotion
anxiety- and locomotion-related behaviour in the dark-light test [7]: did not affect locomotion; also recorded: not altered
